Reference: PubChem BioAssay (NCI)
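GI50 is the concentration that inhibits growth by half. TGI: concentration producing complete growth inhibition.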

How the values were obtained:
Assay in all cases: NCI-60 cell line screen, 384-well format
OVCAR-3 ovarian = system: OVCAR-3 ovarian
SF-539 CNS = system: SF-539 CNS
SK-OV-3 ovarian = system: SK-OV-3 ovarian
OVCAR-8 ovarian = system: OVCAR-8 ovarian
MALME-3M melanoma = system: MALME-3M melanoma
HL-60(TB) leukemia = system: HL-60(TB) leukemia
UACC-257 melanoma = system: UACC-257 melanoma
SNB-19 CNS = system: SNB-19 CNS
PC-3 prostate = system: PC-3 prostate
HT29 colon = system: HT29 colon
SK-MEL-5 melanoma = system: SK-MEL-5 melanoma
HCT-116 colon = system: HCT-116 colon
SN12C renal = system: SN12C renal
MDA-MB-231 breast = system: MDA-MB-231 breast
UACC-62 melanoma = system: UACC-62 melanoma
BT-549 breast = system: BT-549 breast
HCT-15 colon = system: HCT-15 colon
HS 578T breast = system: HS 578T breast
NCI-H23 lung = system: NCI-H23 lung
NCI-H522 lung = system: NCI-H522 lung
OVCAR-5 ovarian = system: OVCAR-5 ovarian
M14 melanoma = system: M14 melanoma
SR leukemia = system: SR leukemia
UO-31 renal = system: UO-31 renal
EKVX NSCLC = system: EKVX NSCLC
RXF 393 renal = system: RXF 393 renal
HCC-2998 colon = system: HCC-2998 colon
SW-620 colon = system: SW-620 colon
COLO 205 colon = system: COLO 205 colon
TK-10 renal = system: TK-10 renal
HOP-62 NSCLC = system: HOP-62 NSCLC
ACHN renal = system: ACHN renal
LOX IMVI melanoma = system: LOX IMVI melanoma
MOLT-4 leukemia = system: MOLT-4 leukemia
HOP-92 NSCLC = system: HOP-92 NSCLC
U251 glioblastoma = system: U251 glioblastoma
NCI-H460 NSCLC = system: NCI-H460 NSCLC
RPMI-8226 leukemia = system: RPMI-8226 leukemia
NCI-H226 lung = system: NCI-H226 lung
A549 NSCLC = system: A549 NSCLC
DU-145 prostate = system: DU-145 prostate
OVCAR-4 ovarian = system: OVCAR-4 ovarian
MCF7 breast = system: MCF7 breast
SK-MEL-28 melanoma = system: SK-MEL-28 melanoma
KM12 colon = system: KM12 colon
CCRF-CEM leukemia = system: CCRF-CEM leukemia
SNB-75 CNS = system: SNB-75 CNS
SF-268 CNS = system: SF-268 CNS
786-0 renal = system: 786-0 renal
NCI-H322M lung = system: NCI-H322M lung
IGROV1 ovarian = system: IGROV1 ovarian
A498 renal = system: A498 renal
MDA-MB-435 melanoma = system: MDA-MB-435 melanoma
T-47D breast = system: T-47D breast
MDA-MB-468 breast = system: MDA-MB-468 breast
CAKI-1 renal = system: CAKI-1 renal
NCI/ADR-RES ovarian = system: NCI/ADR-RES ovarian
SF-295 CNS = system: SF-295 CNS

With `CNC(=O)c1ccc(N2C(=S)N(c3cnc(C#N)c(C(F)(F)F)c3)C(=O)C23CCC3)cc1F` the GI50 (OVCAR-3 ovarian) was over 100 µM, the TGI (OVCAR-3 ovarian) was over 100 µM and the GI50 (SF-539 CNS) was over 100 µM. The TGI (SF-539 CNS) was over 100 µM, the GI50 (SK-OV-3 ovarian) was over 100 µM and the TGI (SK-OV-3 ovarian) was over 100 µM. The GI50 (OVCAR-8 ovarian) was over 100 µM, the TGI (OVCAR-8 ovarian) was over 100 µM and the GI50 (MALME-3M melanoma) was over 100 µM. It also gave a TGI (MALME-3M melanoma) of over 100 µM, a GI50 (HL-60(TB) leukemia) of 55.6 µM and a TGI (HL-60(TB) leukemia) of over 100 µM. The GI50 (UACC-257 melanoma) was over 100 µM, the TGI (UACC-257 melanoma) was over 100 µM and the GI50 (SNB-19 CNS) was over 100 µM. The TGI (SNB-19 CNS) was over 100 µM, the GI50 (PC-3 prostate) was over 100 µM and the TGI (PC-3 prostate) was over 100 µM. It also gave a GI50 (HT29 colon) of over 100 µM, a TGI (HT29 colon) of over 100 µM and a GI50 (SK-MEL-5 melanoma) of over 100 µM. It also gave a TGI (SK-MEL-5 melanoma) of over 100 µM, a GI50 (HCT-116 colon) of over 100 µM and a TGI (HCT-116 colon) of over 100 µM. It also gave a GI50 (SN12C renal) of over 100 µM, a TGI (SN12C renal) of over 100 µM and a GI50 (MDA-MB-231 breast) of over 100 µM. For the same compound, the TGI (MDA-MB-231 breast) was over 100 µM, the GI50 (UACC-62 melanoma) was over 100 µM and the TGI (UACC-62 melanoma) was over 100 µM. The GI50 (BT-549 breast) was over 100 µM, the TGI (BT-549 breast) was over 100 µM and the GI50 (HCT-15 colon) was over 100 µM. For the same compound, the TGI (HCT-15 colon) was over 100 µM, the GI50 (HS 578T breast) was over 100 µM and the TGI (HS 578T breast) was over 100 µM. For the same compound, the GI50 (NCI-H23 lung) was over 100 µM, the TGI (NCI-H23 lung) was over 100 µM and the GI50 (NCI-H522 lung) was over 100 µM. It also gave a TGI (NCI-H522 lung) of over 100 µM, a GI50 (OVCAR-5 ovarian) of over 100 µM and a TGI (OVCAR-5 ovarian) of over 100 µM. The GI50 (M14 melanoma) was over 100 µM, the TGI (M14 melanoma) was over 100 µM and the GI50 (SR leukemia) was 29 µM. It also gave a TGI (SR leukemia) of 100 µM, a GI50 (UO-31 renal) of over 100 µM and a TGI (UO-31 renal) of over 100 µM. The GI50 (EKVX NSCLC) was over 100 µM, the TGI (EKVX NSCLC) was over 100 µM and the GI50 (RXF 393 renal) was over 62.4 µM. For the same compound, the TGI (RXF 393 renal) was over 100 µM, the GI50 (HCC-2998 colon) was over 100 µM and the TGI (HCC-2998 colon) was over 100 µM. It also gave a GI50 (SW-620 colon) of over 100 µM, a TGI (SW-620 colon) of over 100 µM and a GI50 (COLO 205 colon) of over 100 µM. The TGI (COLO 205 colon) was over 100 µM, the GI50 (TK-10 renal) was over 100 µM and the TGI (TK-10 renal) was over 100 µM. For the same compound, the GI50 (HOP-62 NSCLC) was over 100 µM, the TGI (HOP-62 NSCLC) was over 100 µM and the GI50 (ACHN renal) was over 100 µM. For the same compound, the TGI (ACHN renal) was over 100 µM, the GI50 (LOX IMVI melanoma) was over 100 µM and the TGI (LOX IMVI melanoma) was over 100 µM. It also gave a GI50 (MOLT-4 leukemia) of 36.4 µM, a TGI (MOLT-4 leukemia) of over 100 µM and a GI50 (HOP-92 NSCLC) of over 100 µM. For the same compound, the TGI (HOP-92 NSCLC) was over 100 µM, the GI50 (U251 glioblastoma) was over 100 µM and the TGI (U251 glioblastoma) was over 100 µM. The GI50 (NCI-H460 NSCLC) was over 100 µM, the TGI (NCI-H460 NSCLC) was over 100 µM and the GI50 (RPMI-8226 leukemia) was 69.1 µM. It also gave a TGI (RPMI-8226 leukemia) of over 100 µM, a GI50 (NCI-H226 lung) of over 95.1 µM and a TGI (NCI-H226 lung) of over 100 µM. For the same compound, the GI50 (A549 NSCLC) was over 100 µM, the TGI (A549 NSCLC) was over 100 µM and the GI50 (DU-145 prostate) was over 100 µM. The TGI (DU-145 prostate) was over 100 µM, the GI50 (OVCAR-4 ovarian) was 90.4 µM and the TGI (OVCAR-4 ovarian) was over 100 µM. For the same compound, the GI50 (MCF7 breast) was over 100 µM, the TGI (MCF7 breast) was over 100 µM and the GI50 (SK-MEL-28 melanoma) was over 100 µM. For the same compound, the TGI (SK-MEL-28 melanoma) was over 100 µM, the GI50 (KM12 colon) was over 100 µM and the TGI (KM12 colon) was over 100 µM. The GI50 (CCRF-CEM leukemia) was over 100 µM, the TGI (CCRF-CEM leukemia) was over 100 µM and the GI50 (SNB-75 CNS) was over 100 µM. The TGI (SNB-75 CNS) was over 100 µM, the GI50 (SF-268 CNS) was over 100 µM and the TGI (SF-268 CNS) was over 100 µM. It also gave a GI50 (786-0 renal) of over 100 µM, a TGI (786-0 renal) of over 100 µM and a GI50 (NCI-H322M lung) of over 100 µM. The TGI (NCI-H322M lung) was over 100 µM, the GI50 (IGROV1 ovarian) was over 100 µM and the TGI (IGROV1 ovarian) was over 100 µM. The GI50 (A498 renal) was over 100 µM, the TGI (A498 renal) was over 100 µM and the GI50 (MDA-MB-435 melanoma) was over 100 µM. For the same compound, the TGI (MDA-MB-435 melanoma) was over 100 µM, the GI50 (T-47D breast) was over 72.4 µM and the TGI (T-47D breast) was over 100 µM. For the same compound, the GI50 (MDA-MB-468 breast) was 55.5 µM, the TGI (MDA-MB-468 breast) was over 100 µM and the GI50 (CAKI-1 renal) was over 100 µM. The TGI (CAKI-1 renal) was over 100 µM, the GI50 (NCI/ADR-RES ovarian) was over 100 µM and the TGI (NCI/ADR-RES ovarian) was over 100 µM. The GI50 (SF-295 CNS) was over 100 µM and the TGI (SF-295 CNS) was over 100 µM.
